Laboratory results taken from PubChem BioAssay (NCI).
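Five compound concentrations were applied to cells in 96-well plates for 48 hours; endpoints were derived by simple linear interpolation of the resulting dose-response curve. GI50 marks 50% less growth. TGI: concentration producing complete growth inhibition.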

Experiments:
Experiment in all cases: DTP human tumour cell line panel, 48 h
[1] = system: RXF 393 renal
[2] = system: PC-3 prostate
[3] = system: SK-MEL-5 melanoma
[4] = system: SF-268 CNS
[5] = system: SK-MEL-2 melanoma
[6] = system: SF-295 CNS
[7] = system: OVCAR-3 ovarian
[8] = system: A549 NSCLC
[9] = system: A498 renal
[10] = system: SF-539 CNS
[11] = system: NCI-H522 lung
[12] = system: MDA-MB-468 breast
[13] = system: UACC-62 melanoma
[14] = system: OVCAR-4 ovarian
[15] = system: U251 CNS
[16] = system: SR leukemia
[17] = system: OVCAR-5 ovarian
[18] = system: RPMI-8226 leukemia
[19] = system: HCT-116 colon
[20] = system: MOLT-4 leukemia
[21] = system: OVCAR-8 ovarian
[22] = system: TK-10 renal
[23] = system: SNB-19 CNS
[24] = system: SNB-75 CNS
[25] = system: BT-549 breast
[26] = system: CAKI-1 renal
[27] = system: SK-MEL-28 melanoma
[28] = system: HOP-92 NSCLC
[29] = system: HCC-2998 colon
[30] = system: T-47D breast
[31] = system: MDA-MB-435
[32] = system: IGROV1 ovarian
[33] = system: KM12 colon
[34] = system: 786-0 renal
[35] = system: HCT-15 colon
[36] = system: NCI-H460 lung
[37] = system: HOP-62 NSCLC
[38] = system: MCF7 breast
[39] = system: HT29 colon
[40] = system: COLO 205 colon
[41] = system: MALME-3M melanoma
[42] = system: NCI-H23 lung
[43] = system: CCRF-CEM leukemia
[44] = system: SW-620 colon
[45] = system: K-562 leukemia
[46] = system: M14 melanoma
[47] = system: UO-31 renal
[48] = system: SK-OV-3 ovarian
[49] = system: MDA-MB-231 breast
[50] = system: DU-145 prostate
[51] = system: LOX IMVI melanoma
[52] = system: HS 578T breast
[53] = system: UACC-257 melanoma
[54] = system: NCI/ADR-RES ovarian
[55] = system: HL-60(TB) leukemia
[56] = system: NCI-H226 lung
[57] = system: ACHN renal
[58] = system: EKVX NSCLC
[59] = system: SN12C renal

SMILES: CC(=O)Nc1cccc(-c2nc3cc(-c4ccc(O)cc4)ccc3n2C)c1
- GI50 [1]: 11.4 µM
- TGI [1]: 39.5 µM
- GI50 [2]: 13.7 µM
- TGI [2]: 65 µM
- GI50 [3]: 3.24 µM
- TGI [3]: 11.6 µM
- GI50 [4]: 17.7 µM
- TGI [4]: > 100 µM
- GI50 [5]: 8.73 µM
- TGI [5]: 26.1 µM
- GI50 [6]: 10.1 µM
- TGI [6]: 36.2 µM
- GI50 [7]: 16.2 µM
- TGI [7]: 63.5 µM
- GI50 [8]: 12.1 µM
- TGI [8]: 60.1 µM
- GI50 [9]: 19.2 µM
- TGI [9]: 67.6 µM
- GI50 [10]: 16.1 µM
- TGI [10]: 62.8 µM
- GI50 [11]: 5.16 µM
- TGI [11]: 20.7 µM
- GI50 [12]: 1.83 µM
- TGI [12]: 7.12 µM
- GI50 [13]: 7.42 µM
- TGI [13]: 24.9 µM
- GI50 [14]: 3.64 µM
- TGI [14]: 27.2 µM
- GI50 [15]: 18.3 µM
- TGI [15]: > 100 µM
- GI50 [16]: 12.3 µM
- TGI [16]: > 100 µM
- GI50 [17]: 25.8 µM
- TGI [17]: 93.5 µM
- GI50 [18]: 4.7 µM
- TGI [18]: 23.8 µM
- GI50 [19]: 15.1 µM
- TGI [19]: 50.9 µM
- GI50 [20]: 4.6 µM
- TGI [20]: 29.5 µM
- GI50 [21]: 10.8 µM
- TGI [21]: 26.9 µM
- GI50 [22]: 19.4 µM
- TGI [22]: 81.5 µM
- GI50 [23]: 27.2 µM
- TGI [23]: > 100 µM
- GI50 [24]: 9.43 µM
- TGI [24]: 46.3 µM
- GI50 [25]: 5.07 µM
- TGI [25]: 17.7 µM
- GI50 [26]: 11.5 µM
- TGI [26]: 49.2 µM
- GI50 [27]: 11.4 µM
- TGI [27]: 29.6 µM
- GI50 [28]: 11.7 µM
- TGI [28]: > 100 µM
- GI50 [29]: 17.1 µM
- TGI [29]: 74 µM
- GI50 [30]: 2.91 µM
- TGI [30]: 11.9 µM
- GI50 [31]: 5.29 µM
- TGI [31]: 19.3 µM
- GI50 [32]: 14.4 µM
- TGI [32]: 46.6 µM
- GI50 [33]: 12.8 µM
- TGI [33]: 29.7 µM
- GI50 [34]: 28.2 µM
- TGI [34]: > 100 µM
- GI50 [35]: 18.8 µM
- TGI [35]: 68.8 µM
- GI50 [36]: 11.6 µM
- TGI [36]: 36.4 µM
- GI50 [37]: 28.1 µM
- TGI [37]: 65.4 µM
- GI50 [38]: 4.38 µM
- TGI [38]: 22.2 µM
- GI50 [39]: 24 µM
- TGI [39]: > 100 µM
- GI50 [40]: 17.3 µM
- TGI [40]: 34.2 µM
- GI50 [41]: 5.01 µM
- TGI [41]: 18.6 µM
- GI50 [42]: 10.6 µM
- TGI [42]: 31 µM
- GI50 [43]: 6.06 µM
- TGI [43]: 50 µM
- GI50 [44]: 16.8 µM
- TGI [44]: 42.9 µM
- GI50 [45]: 8.91 µM
- TGI [45]: > 100 µM
- GI50 [46]: 12.9 µM
- TGI [46]: 26.8 µM
- GI50 [47]: 10.8 µM
- TGI [47]: 31.8 µM
- GI50 [48]: 25.8 µM
- TGI [48]: 96.5 µM
- GI50 [49]: 23.7 µM
- TGI [49]: > 100 µM
- GI50 [50]: 16.6 µM
- TGI [50]: 65.3 µM
- GI50 [51]: 14.3 µM
- TGI [51]: 31.7 µM
- GI50 [52]: 19.7 µM
- TGI [52]: > 100 µM
- GI50 [53]: 3.76 µM
- TGI [53]: 15.5 µM
- GI50 [54]: 21 µM
- TGI [54]: 63.5 µM
- GI50 [55]: 10.6 µM
- TGI [55]: 39.7 µM
- GI50 [56]: 7.76 µM
- TGI [56]: 51.7 µM
- GI50 [57]: 5.17 µM
- TGI [57]: 47.7 µM
- GI50 [58]: 13.8 µM
- TGI [58]: 51 µM
- GI50 [59]: 17.8 µM
- TGI [59]: > 100 µM
